Results from patent publication US9403810B2, “Carboxamide derivatives” (Novartis AG, priority 2014, dated 2016).

Target: Smurf-1 (Homo sapiens (Human), UniProt Q9HCE7)
Assay: HECT E3 ligase autoubiquitinylation TR-FRET assay (Smurf-1)
Type: biochemical
Conditions: 8-point dose-response curve, 3 nM to 10 uM; 45 min incubation
Text: To determine the HECT E3 ligase selectivity of the compounds, a panel of biochemical HECT E3 ligase autoubiquitinylation assays was employed (Smurf-1, Smurf-2, WWP1, WWP2, ITCH, Nedd4, Nedd4L and E6AP). The conjugation of ubiquitin to a protein substrate is a multistep process. In an initial ATP-requiring step, a thioester bond is formed between the carboxyl terminus of ubiquitin and an internal cystein residue of the ubiquitin-activating enzyme (E1). Activated ubiquitin is then transferred to a specific cystein residue of an ubiquitin-conjugating enzyme (E2). E2s donate ubiquitin to a HECT E3 ligase (E3) from which it is transferred to the substrate protein. HECT E3 ligases can auto-ubiquitinylate. This event is detected in the TR-FRET (Time-Resolved Fluorescence Resonance Energy Transfer) assay used in this panel. The reaction mix contains E1, E2, tagged-E3, biotin-conjugated ubiquitin, the compound and ATP in a suitable buffer and is incubated for 45 minutes to allow auto-ubiquitinylation of the E3 ligase. To measure the extent of ubiquitinylated E3 ligase by TR-FRET, the donor fluorophore Europium cryptate (Eu3+ cryptate), conjugated to streptavidin which subsequently binds to biotinylated ubiquitin, and the modified allophycocyanin XL665 (HTRF® primary acceptor fluorophore) coupled to a tag-specific antibody (HA, His or GST), which recognizes the respective E3 ligase fusion proteins, are added after the reaction is complete. When these two fluorophores are brought together by a bimolecular interaction (in this case ubiquitinylation of the E3 ligase), a portion of the energy captured by the Cryptate during excitation is released through fluorescence emission at 620 nm, while the remaining energy is transferred to XL665. This energy is then released by XL665 as specific fluorescence at 665 nm. Light at 665 nm is emitted only through FRET with Europium.
Test and reference compounds are prepared at 180× [final] in 90% DMSO, and diluted 1:3 in 90% DMSO.
For the biochemical assay panel, 50 nl of the test compounds, reference compounds and buffer/DMSO control are transferred to the respective wells of a 384-well white GREINER “SMALL VOLUME” PS plate. The assay panel is run at room temperature on a Biomek FX liquid handling workstation. To the assay plates containing 50 nl compound or control solutions in 90% DMSO, 4.5 ul of E3 ligase solution were added per well, followed by 4.5 ul of the pre-incubated E1/E2/Ub mix or the pre-diluted ubiquitin (LOW control). Plates are shaken vigorously after each addition. In this assay the compound concentrations range from 3 nM to 10 uM in an 8-point dose-response curve.
After an incubation time of 45 min in the dark, the plates are transferred into the Pherastar fluorescence reader to measure the TR-FRET signal.

Chain of Smurf-1 (Q9HCE7 whole entry): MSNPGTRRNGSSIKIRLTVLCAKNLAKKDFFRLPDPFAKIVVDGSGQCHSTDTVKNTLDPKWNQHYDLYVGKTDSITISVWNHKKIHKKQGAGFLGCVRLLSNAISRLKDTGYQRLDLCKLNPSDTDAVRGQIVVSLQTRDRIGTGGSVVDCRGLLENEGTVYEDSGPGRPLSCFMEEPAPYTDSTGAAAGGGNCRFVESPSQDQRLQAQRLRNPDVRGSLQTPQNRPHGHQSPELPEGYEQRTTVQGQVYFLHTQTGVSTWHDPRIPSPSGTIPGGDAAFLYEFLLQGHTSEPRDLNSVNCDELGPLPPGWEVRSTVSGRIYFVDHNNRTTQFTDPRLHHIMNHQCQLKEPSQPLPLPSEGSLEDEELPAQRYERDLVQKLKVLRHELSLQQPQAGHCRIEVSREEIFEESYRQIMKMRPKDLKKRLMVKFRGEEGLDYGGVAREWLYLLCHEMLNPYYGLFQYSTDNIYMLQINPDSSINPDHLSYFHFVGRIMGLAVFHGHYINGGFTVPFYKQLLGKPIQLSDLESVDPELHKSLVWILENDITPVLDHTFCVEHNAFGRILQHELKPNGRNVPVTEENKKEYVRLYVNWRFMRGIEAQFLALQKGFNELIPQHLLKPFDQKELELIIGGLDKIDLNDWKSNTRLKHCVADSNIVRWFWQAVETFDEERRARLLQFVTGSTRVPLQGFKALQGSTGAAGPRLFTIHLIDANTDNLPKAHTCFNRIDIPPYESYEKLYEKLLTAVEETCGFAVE

Row | IC50 [nM] | Structure (SMILES)
1 | 0.9 | Cc1c(C(=O)Nc2c(C)n(C)n(C3CCCCC3)c2=O)noc1C1=CCC(C)(C)CC1 [Example 2.2, N-(2-Cyclohexyl-1,5-dimethyl-3-oxo-2,3-dihydro-1H-pyrazol-4-yl)-5-(4,4-dimethylcyclohex-1-en-1-yl)-4-methylisoxazole-3-carboxamide]
2 | 23 | Cc1c(C(=O)Nc2c(C)n(C)n(C3CCCCC3)c2=O)noc1C1CCC(C)(C)C1 (stereo not drawn) [Example 6.1, N-(2-Cyclohexyl-1,5-dimethyl-3-oxo-2,3-dihydro-1H-pyrazol-4-yl)-5-(3,3-dimethylcyclopentyl)-4-methylisoxazole-3-carboxamide]
3 | 630 | Cc1c(C(=O)Nc2c(C)n(C)n(C3CCCCC3)c2=O)noc1C1CC(Br)C(C)CO1 (stereo not drawn) [Example 21.1, 5-(4-Bromo-5-methyltetrahydro-2H-pyran-2-yl)-N-(2-cyclohexyl-1,5-dimethyl-3-oxo-2,3-dihydro-1H-pyrazol-4-yl)-4-methylisoxazole-3-carboxamide]
4 | 490 | CC1=CCC(c2onc(C(=O)Nc3c(C)n(C)n(C4CCCCC4)c3=O)c2C)OC1 (stereo not drawn) [Example 21.2, N-(2-cyclohexyl-1,5-dimethyl-3-oxo-2,3-dihydro-1H-pyrazol-4-yl)-4-methyl-5-(5-methyl-3,6-dihydro-2H-pyran-2-yl)isoxazole-3-carboxamide]

Continued, molecule first:

Row | Structure (SMILES) | IC50 [nM]
5 | Cc1c(C(=O)Nc2c(C)n(C)n(C3CCCCC3)c2=O)noc1C1=CCC(C)(C)C1 [Example 3, N-(2-Cyclohexyl-1,5-dimethyl-3-oxo-2,3-dihydro-1H-pyrazol-4-yl)-5-(4,4-dimethylcyclopent-1-en-1-yl)-4-methylisoxazole-3-carboxamide] | 6
6 | Cc1c(C(=O)Nc2c(C)n(C)n(C3CCCCC3)c2=O)noc1C1=CCC2(CCOC2)CC1 (stereo not drawn) [Example 4, N-(2-Cyclohexyl-1,5-dimethyl-3-oxo-2,3-dihydro-1H-pyrazol-4-yl)-4-methyl-5-(2-oxaspiro[4.5]dec-7-en-8-yl)isoxazole-3-carboxamide] | 100
7 | Cc1c(C(=O)Nc2c(C)n(C)n(C3CCCCC3)c2=O)noc1C1=CCC(OC(C)C)CC1 (stereo not drawn) [Example 5, N-(2-Cyclohexyl-1,5-dimethyl-3-oxo-2,3-dihydro-1H-pyrazol-4-yl)-5-(4-isopropoxycyclohex-1-en-1-yl)-4-methylisoxazole-3-carboxamide] | 310
8 | Cc1c(C(=O)Nc2c(C)n(C)n(C3CCCCC3)c2=O)noc1C1CCC(C)(C)CC1 [Example 6, N-(2-Cyclohexyl-1,5-dimethyl-3-oxo-2,3-dihydro-1H-pyrazol-4-yl)-5-(4,4-dimethylcyclohexyl)-4-methylisoxazole-3-carboxamide] | 5.7
9 | Cc1c(C(=O)Nc2c(C)n(C)n(C3CCCCC3)c2=O)noc1CCC(C)(C)C [Example 7, N-(2-Cyclohexyl-1,5-dimethyl-3-oxo-2,3-dihydro-1H-pyrazol-4-yl)-5-(3,3-dimethylbutyl)-4-methylisoxazole-3-carboxamide] | 19
10 | Cc1c(C(=O)Nc2c(C)n(C)n(C3CCCCC3)c2=O)noc1/C=C\C(C)(C)C [Example 8, (Z)—N-(2-Cyclohexyl-1,5-dimethyl-3-oxo-2,3-dihydro-1H-pyrazol-4-yl)-5-(3,3-dimethylbut-1-en-1-yl)-4-methylisoxazole-3-carboxamide] | 46
11 | Cc1c(C(=O)Nc2c(C)n(C)n(C3CCCCC3)c2=O)noc1/C=C/C(C)(C)C [Example 9, (E)-N-(2-Cyclohexyl-1,5-dimethyl-3-oxo-2,3-dihydro-1H-pyrazol-4-yl)-5-(3,3-dimethylbut-1-en-1-yl)-4-methylisoxazole-3-carboxamide] | 58
12 | Cc1c(C(=O)Nc2c(C)n(C)n(C3CCCCC3)c2=O)noc1C1CCCCC1 [Example 10, 5-Cyclohexyl-N-(2-cyclohexyl-1,5-dimethyl-3-oxo-2,3-dihydro-1H-pyrazol-4-yl)-4-methylisoxazole-3-carboxamide] | 50
13 | Cc1c(C(=O)Nc2c(C)n(C)n(C3CCCCC3)c2=O)noc1C1CCC2(CC1)OCCO2 [Example 11, N-(2-Cyclohexyl-1,5-dimethyl-3-oxo-2,3-dihydro-1H-pyrazol-4-yl)-4-methyl-5-(1,4-dioxaspiro[4.5]decan-8-yl)isoxazole-3-carboxamide] | 420
14 | Cc1c(C(=O)Nc2c(C)n(C)n(C3CCCCC3)c2=O)noc1[C@@H]1OCC(C)(C)O[C@H]1C [Example 20, N-(2-Cyclohexyl-1,5-dimethyl-3-oxo-2,3-dihydro-1H-pyrazol-4-yl)-4-methyl-5-((2R,3S)-3,5,5-trimethyl-1,4-dioxan-2-yl)isoxazole-3-carboxamide] | 180
15 | Cc1c(C(=O)Nc2c(C)n(C)n(C3CCCCC3)c2=O)noc1C1OCC(C)(C)CO1 [Example 26, N-(2-Cyclohexyl-1,5-dimethyl-3-oxo-2,3-dihydro-1H-pyrazol-4-yl)-5-(5,5-dimethyl-1,3-dioxan-2-yl)-4-methylisoxazole-3-carboxamide] | 580
